In patent US20090170846A1, “INHIBITORS OF THE HIV INTEGRASE ENZYME” (Pfizer Inc, priority 2005, published 2009):
Where two headings read alike, the source gives them in different places.

Legend:
[1] = system: RF strain of HIV-1 in CEM-SS cells; test: HIV-1 cell protection assay (XTT dye reduction); assay type: cell-based
Description: HIV-1 Cell Protection Assay
The antiviral activities of potential modulator compounds (test compounds) were determined in HIV-1 cell protection assays using the RF strain of HIV-1, CEM-SS cells, and the XTT dye reduction method (Weislow, O, S. et al., J. Natl. Cancer Inst 81: 577-586 (1989)). Subject cells were infected with HIV-1 RF virus at an moi of to affect about a 90% kill (for example, an moi in the range of from about 0.025 to about 0.819) or mock infected with medium only and added at 2×10^4 cells per well, with the addition of approximately 200 μL of medium, into 96 well plates containing half-log dilutions of test compounds. Six days later, 50 μl of XTT solution (1 mg/ml XTT tetrazolium and 20 nM phenazine methosulfate) were added to the wells and the plates were reincubated for four hours. Viability, as determined by the amount of XTT formazan produced, was quantified spectrophotometrically by absorbance at 450 nm.
Data from CPE assays were expressed as the percent of formazan produced in compound-treated cells compared to formazan produced in wells of uninfected, compound-free cells. The fifty percent effective concentration (EC50) was calculated as the concentration of compound that affected an increase in the percentage of formazan production in infected, compound-treated cells to 50% of that produced by uninfected, compound-free cells. The 50% cytotoxicity concentration (CC50) was calculated as the concentration of compound that decreased the percentage of formazan produced in uninfected, compound-treated cells to 50% of that produced in uninfected, compound-free cells. The therapeutic index was calculated by dividing the cytotoxicity (CC50) by the antiviral activity (EC50).

[2] = target: T1, Full-length wild type HIV-1 integrase (SF1) (Human immunodeficiency virus type 1 group M subtype B, UniProt P04585); test: Integrase strand-transfer scintillation proximity assay; assay type: biochemical
T1 construct: made in house; host or cells: E. coli BL21 (DE3)
Source text: Integrase Strand-Transfer Scintillation Proximity Assay
Oligonucleotides: Oligonucleotide #1-5′-(biotin)[…]-3′ (SEQ ID NO: 1) and oligonucleotide #2-5′-[…]-3′ (SEQ ID NO: 2), were synthesized by TriLink BioTechnologies, Inc. (San Diego, Calif.). The annealed product represents preprocessed viral ds-DNA derived from the LTR U5 sequence of the viral genome. A ds-DNA control to test for non-specific interactions was made using a 3′ di-deoxy derivative of oligonucleotide #1 annealed to oligonucleotide #2. The CA overhang at the 5′ end of the non-biotinylated strand of the ds-DNA was created artificially by using a complimentary DNA oligonucleotide shortened by 2 base pairs. This configuration eliminates the requisite 3′ processing step of the integrase enzyme prior to the strand-transfer mechanism.
Host ds-DNA was prepared as an unlabeled and [^3H]-thymidine labeled product from annealed oligonucleotide #3-5-[…]-3′ (SEQ ID NO: 3), and oligonucleotide #4-1-5′-[…]-3′ (SEQ ID NO: 4), both synthesized by TriLink BioTechnologies, Inc. (San Diego, Calif.). The annealed product had overhanging 3′ ends of poly(dA). Host DNA was custom radiolabeled by PerkinElmer Life Sciences Inc. (Boston, Mass.) using an enzymatic method with a 12/1 ratio of [methyl-^3H]dTTP/cold ds-DNA to yield 5′-blunt end ds-DNA with a specific activity of >900 Ci/mmol. The radiolabeled product was purified using a NENSORB cartridge and stored in stabilized aqueous solution (PerkinElmer). The final radiolabeled product had six [^3H]-thymidine nucleotides at both 5′ ends of the host ds-DNA.
Reagents: Streptavidin-coated polyvinyltoluene (PVT) SPA beads were purchased from Amersham Biosciences (Piscataway, N.J.). Cesium chloride was purchased from Shelton Scientific, Inc. (Shelton, Conn.). White, polystyrene, flat-bottom, non-binding surface, 96-well plates were purchased from Corning. All other buffer components were purchased from Sigma (St. Louis, Mo.) unless otherwise indicated.
Enzyme Construction Full-length wild type HIV-1 integrase (SF1) sequence (amino acids 1-289) was constructed in a pET24a vector (Novagen, Madison, Wis.). The construct was confirmed through DNA sequencing.
Enzyme Purification Full length wild-type HIV Integrase was expressed in E. coli BL21 (DE3) cells and induced with 1 mM isopropyl-1 thio-β-D-galactopyranoside (IPTG) when cells reached an optical density between 0.8-1.0 at 600 nm. Cells were lysed by microfluidation in 50 mM HEPES pH 7.0, 75 mM NaCl, 5 mM DTT, 1 mM 4-(2-Aminoethyl)benzenesulfonylfluoride HCl (AEBSF). Lysate was then centrifuged 20 minutes at 11 k rpm in GSA rotor in Sorvall RC-5B at 4° C. Supernant was discarded and pellet resuspended in 50 mM HEPES pH 7.0, 750 mM NaCl, 5 mM DTT, 1 mM AEBSF and homogenized in a 40 mL Dounce homogenizer for 20 minutes on ice. Homogenate was then centrifuged 20 minutes at 11 k rpm in SS34 rotor in Sorvall RC-5B at 4° C. Supernant was discarded and pellet resuspended in 50 mM HEPES pH 7.0, 750 mM NaCl, 25 mM CHAPS, 5 mM DTT, 1 mM AEBSF. Preparation was then centrifuged 20 minutes at 11 k rpm in SS34 rotor in Sorvall RC-5B at 4° C.
Supernant was then diluted 1:1 with 50 mM HEPES pH 7.0, 25 mM CHAPS, 1 mM DTT, 1 mM AEBSF and loaded onto a Q-Sepharose column pre-equilibrated with 50 mM HEPES, pH 7.0, 375 mM NaCl, 25 mM CHAPS, 1 mM DTT, 1 mM AEBSF. The flow through peak was collected and NaCl diluted to 0.1 M with 50 mM HEPES pH 7.0, 25 mM CHAPS, 1 mM DTT, 0.5 mM AEBSF and loaded onto a SP-Sepharose column pre-equilibrated with 50 mM HEPES pH 7.0, 100 mM NaCl, 25 mM CHAPS, 1 mM DTT, 0.5 mM AEBSF. After washing the column with the equilibration buffer, a 100 to 400 mM NaCl gradient was run. The eluted integrase was concentrated and run on a S-300 gel diffusion column using 50 mM HEPES pH 7.0, 500 mM NaCl, 25 mM CHAPS, 1 mM DTT, 0.5 mM AEBSF. The peak from this column was concentrated to 0.76 mg/mL and stored at −70° C. and later used for strand transfer assays. […]

[3] = Human immunodeficiency virus 1, CEM-SS, 144 h
[4] = integrase strand-transfer SPA, read-out: IC50
[5] = Human immunodeficiency virus 1, 144 h, HIV-1 RF, CEM-SS cells, XTT, six days, read-out: EC50

Structure (SMILES)	EC50 [1, 3]	IC50 [2, 4]	EC50 [1, 5]	IC50 [2]
Cc1c(CNC(=O)c2cn(Cc3ccc(F)cc3)c3cnc(C(=O)NO)cc23)cnn1C [Example 28, N~3~-[(1,5-dimethyl-1H-pyrazol-4-yl)methyl]-1-(4-fluorobenzyl)-N~5~- hydroxy-1H-pyrrolo[2,3-c]pyridine-3,5-dicarboxamide]	100 nM	46 nM	–	–
O=C(NO)c1cc2c(C(=O)NCCCN3CCCC3=O)cn(Cc3ccc(F)cc3)c2cn1 [Example 29, 1-(4-fluorobenzyl)-N~5~- hydroxy-N~3~-[3-(2-oxopyrrolidin-1-yl)propyl]-1H-pyrrolo[2,3-c]pyridine-3,5-dicarboxamide]	130 nM	70 nM	–	–
O=C(NO)c1cc2c(C(=O)N3CCCC(CO)C3)cn(Cc3ccc(F)cc3)c2cn1 (centres unmarked) [Example 30, 1-(4-fluorobenzyl)-N-hydroxy-3-{[3-(hydroxymethyl)piperidin-1-yl]carbonyl}-1H-pyrrolo[2,3-c]pyridine-5-carboxamide]	110 nM	72 nM	–	–
CCN1CCCC1CNC(=O)c1cn(Cc2ccc(F)cc2)c2cnc(C(=O)NO)cc12 (centres unmarked) [Example 31, N~3~-[(1-ethylpyrrolidin-2-yl)methyl]-1-(4-fluorobenzyl)-N~5~- hydroxy-1H-pryyolo[2,3-c]pyridine-3,5-dicarboxamide]	200 nM	141 nM	–	–
CN(O)C(=O)c1cc2c(C(=O)NCCN3CCOCC3)cn(Cc3ccc(F)cc3)c2cn1 [Example 32, 1-(4-fluorobenzyl)-N~5~- hydroxy-N~5~-methyl-N~3~-(2-morpholin-4-ylethyl)-1H-pyrrolo[2,3-c]pyridine-3,5-dicarboxamide]	210 nM	503 nM	–	–
CN(O)C(=O)c1cc2c(C(=O)N3CCCC(CO)C3)cn(Cc3ccc(F)cc3)c2cn1 (centres unmarked) [Example 33]	140 nM	320 nM	–	–
CN(C)S(=O)(=O)c1cn(Cc2ccc(F)cc2)c2cnc(C(=O)NO)cc12 [Example 34]	–	136 nM	47 nM	–
CN(O)C(=O)c1cc2c(S(=O)(=O)N(C)C)cn(Cc3ccc(F)cc3)c2cn1 [Example 35, 3-[(dimethylamino)sulfonyl]-1-(4-fluorobenzyl)-N-hydroxy-N-methyl-1H-pyrrolo[2,3-c]pyridine-5-carboxamide]	–	1030 nM	370 nM	–
NC(=O)[C@@H]1CCCN1S(=O)(=O)c1cn(Cc2ccc(F)cc2F)c2cnc(C(=O)NO)cc12 [Example 36, 3-{[(2S)-2-(aminocarbonyl)pyrrolidin-1-yl]sulfonyl}-1-(2,4-difluorobenzyl)-N-hydroxy-1H-pyrrolo[2,3-c]pyridine-5-carboxamide]	–	197 nM	340 nM	–
O=C(NO)c1cc2c(S(=O)(=O)NCCN3CCOCC3)cn(Cc3ccc(F)cc3F)c2cn1 [Example 37, 1-(2,4-difluorobenzyl)-N-hydroxy-3-{[(2-morpholin-4-ylethyl)amino]sulfonyl}-1H-pyrrolo[2,3-c]pyridine-5-carboxamide]	–	161 nM	490 nM	–
O=C1CN(S(=O)(=O)c2cn(Cc3ccc(F)cc3F)c3cnc(C(=O)NO)cc23)CCN1 [Example 38, 1-(2,4-difluorobenzyl)-N-hydroxy-3-[(3-oxopiperazin-1-yl)sulfonyl]-1H-pyrrolo[2,3-c]pyridine-5-carboxamide]	–	265 nM	8000 nM	–
CONC(=O)c1cc2c(S(=O)(=O)N3CCNC(=O)C3)cn(Cc3ccc(F)cc3F)c2cn1 [Example 39, 1-(2,4-difluorobenzyl)-N-methoxy-3-[(3-oxopiperazin-1-yl)sulfonyl]-1H-pyrrolo[2,3-c]pyridine-5-carboxamide]	–	299 nM	210 nM	–
CONC(=O)c1cc2c(S(=O)(=O)NCCN3CCOCC3)cn(Cc3ccc(F)cc3F)c2cn1 [Example 40, 1-(2,4-difluorobenzyl)-N-methoxy-3-{[(2-morpholin-4-ylethyl)amino]sulfonyl}-1H-pyrrolo[2,3-c]pyridine-5-carboxamide]	–	760 nM	52 nM	–
CN(O)C(=O)c1cc2c(S(=O)(=O)N3CCNC(=O)C3)cn(Cc3ccc(F)cc3F)c2cn1 [Example 41, 1-(2,4-difluorobenzyl)-N-hydroxy-N-methyl-3-[(3-oxopiperazin-1-yl)sulfonyl]-1H-pyrrolo[2,3-c]pyridine-5-carboxamide]	–	–	3300 nM	1150 nM
CN(O)C(=O)c1cc2c(S(=O)(=O)N3CCC[C@H]3C(N)=O)cn(Cc3ccc(F)cc3F)c2cn1 [Example 42, 3-{[(2S)-2-(aminocarbonyl)pyrrolidin-1-yl]sulfonyl)-1-(2,4-difluorobenzyl)-N-hydroxy-N-methyl-1H-pyrrolo[2,3-c]pyridine-5-carboxamide]	–	–	6300 nM	1050 nM
CN(O)C(=O)c1cc2c(C(=O)NC[C@@H]3CCCO3)cn(Cc3ccc(F)cc3)c2cn1 [Example 43, 1-(4-fluorobenzyl)-N5-hydroxy-N5-methyl-N3-[(2S)-tetrahydrofuran-2-ylmethyl]-1H-pyrrolo[2,3-c]pyridine-3,5-dicarboxamide]	80 nM	221 nM	–	–
CC(C)NC(=O)c1cn(Cc2ccc(F)cc2)c2cnc(C(=O)N(C)O)cc12 [Example 44, 1-(4-fluorobenzyl)-N5-hydroxy-N3-isopropyl-N5-methyl-1H-pyrrolo[2,3-c]pyridine-3,5-dicarboxamide]	70 nM	205 nM	–	–
CN(O)C(=O)c1cc2c(C(=O)NCC(F)F)cn(Cc3ccc(F)cc3)c2cn1 [Example 45, N3-(2,2-difluoroethyl)-1-(4-fluorobenzyl)-N5-hydroxy-N5-methyl-1H-pyrrolo[2,3-c]pyridine-3,5-dicarboxamide]	39 nM	243 nM	–	–
CONC(=O)c1cc2c(C(=O)N3CCC[C@@H]3CO)cn(Cc3ccc(F)cc3)c2cn1 [Example 46]	56 nM	895 nM	–	–
